Experimental data as given in US9958436B2, “Determination of cell chirality” (THE TRUSTEES OF COLUMBIA UNIVERSITY IN THE CITY OF NEW YORK, priority 2011, dated 2018).
“Also recorded” adds a separate entry of the source.

Assays:
C2C12 cells [1] = assay: Effects of culture conditions (substrate protein coating, calcium chelator) on cell chirality; type: cell-based, mouse; conditions: count of rings
Procedure: An adhesive SAM octadecanethiol (Sigma) was transferred onto the gold-coated (150 Å in thickness) glass slide with the PDMS stamp (see e.g., FIG. 1) (L. Q. Wan et al., Integr Biol (Camb) 2, 346 (Aug. 10, 2010)). The slide was then immersed in a non-adhesive ethylene glycol-terminated SAM (HS-(CH2)11-EG3, Prochimia, Poland) for 3 hours. Finally, patterned surfaces were washed with ethanol and coated with 10 μg/ml fibronectin (Sigma) for 30 minutes.
(§1) Cells were maintained in tissue flasks with culture media specified in TABLE 2. After reaching 70% confluency, cells were trypsinized and seeded onto protein-coated patterned surfaces. Once the cells attached, extra cells were washed off with fresh medium. At this time drugs were added into the culture medium if necessary. Phase contrast images were taken after overnight incubation at 37° C. and 5% CO2 when cells reached confluency on the ring patterns.
(§2) High-resolution phase contrast images of live patterned cells were taken at a resolution of ˜0.645 μm/pixel, and analyzed using a custom-written code in MatLab (MathWorks, Natick, Mass.), based on the automated detection of intensity gradient and circular statistics (W. J. Karlon et al., Ann Biomed Eng 27, 712 (November-December, 1999)). In this algorithm, the intensity gradient was determined pixel by pixel with a Gaussian differential filter. In each sub-region of the image, the dominant local direction was determined using an accumulator scheme, in which the orientation of each pixel follows a von Mises distribution, a circular analogue of the linear normal distribution. Subsequently, the orientation in each sub-region was converted into an angle bias based on its deviation from the circumferential direction (see e.g., FIG. 2C). Mean angle and standard deviation of LR asymmetry were calculated for all sub-regions, using circular statistics (N. I. Fish, Statistical Analysis of Circular Data. (Cambridge University Press, Cambridge, UK, 1993)). […] The sub-region size was therefore set to 20 by 20 pixels (i.e., 13 by 13 μm).
(§3) Cell chirality on ring patterns (i.e., clockwise or counterclockwise alignment) was determined from calculated biased angles in local regions with one sample test for the mean angle, analogous to the one sample t-test in linear statistics (N. I. Fish, Statistical Analysis of Circular Data. (Cambridge University Press, Cambridge, UK, 1993)).
The geometric boundaries determined organelle positioning (i.e., x-axis), with centrosomes (bright green, see e.g., FIG. 4B) and Golgi apparatus (red, see e.g., FIG. 4C) being positioned closer to the boundaries than the cell nucleus (blue) (R. A. Desai, L. Gao, S. Raghavan, W. F. Liu, C. S. Chen, J Cell Sci 122, 905 (Apr. 1, 2009)), independent of the gravitational direction. In addition, cell chirality was maintained on patterns with different surface chemistry, and after the disruption of cadherin function (see e.g., FIG. 1, TABLE 6, TABLE 7).

C2C12 cells [2] = assay: Cell chirality (alignment) on micropatterned rings, drug treatment, C2C12; type: cell-based, mouse; conditions: for CCW: counter-clockwise alignment / CW: clockwise alignment / N/S: not significantly biased to CW or CCW: C2C12 on ring patterns, count of rings
Procedure: as §1
(§4) To examine the role of actin in left-right (LR) asymmetry, cells were tested with 20-500 nM Latrunculin A, 0.05-1.0 μg/ml Cytochalasin D, and 1-100 nM Jasplakinolide. Latrunculin A inhibits actin polymerization by forming a 1:1 molar complex with G-actin, thereby inhibiting its ability to polymerize into F-actin (M. Coue, S. L. Brenner, I. Spector, E. D. Korn, FEBS Lett 213, 316 (Mar. 23, 1987)). Cytochalasin D inhibits actin polymerization by binding to the growing ends of F-actin chains and thus preventing the attachment and addition of G-actin monomers (J. A. Cooper, J Cell Biol 105, 1473 (October, 1987)). Jasplakinolide is known to bind to and stabilize actin filaments in vitro (M. R. Bubb, I. Spector, B. B. Beyer, K. M. Fosen, J Biol Chem 275, 5163 (Feb. 18, 2000)).
(§5) To examine the role of microtubules in LR asymmetry, 0.2-2 μM Nocodazole, and 0.3-30 nM Taxol were used. Nocodazole suppresses microtubule dynamics by destabilizing and disassembling microtubules (J. A. Cooper, J Cell Biol 105, 1473 (October, 1987)). Taxol inhibits the microtubule depolymerization and stabilizes microtubules (W. B. Derry, L. Wilson, M. A. Jordan, Biochemistry 34, 2203 (Feb. 21, 1995)).
To examine the role of the actomyosin motor, cells were tested with […], […], and 0.5-10 […]. Y-27632 works as a selective inhibitor to prevent the phosphorylation of the myosin regulatory light chain (T. Ishizaki et al., Mol Pharmacol 57, 976 (May, 2000)). ML-7 acts as a selective inhibitor of the myosin light chain kinase (M. Isemura, T. Mita, K. Satoh, K. Narumi, M. Motomiya, Cell Biol Int Rep 15, 965 (October, 1991)). Blebbistatin forms a low actin affinity complex through binding to myosin heads, causing the inhibition of nonmuscle myosin II ATPase activity (M. Kovacs, J. Toth, C. Hetenyi, A. Malnasi-Csizmadia, J. R. Sellers, J Biol Chem 279, 35557 (Aug. 20, 2004)).
as §2, §3

C2C12 cells [3] = assay: Analysis of cell migration on ring patterns (time-lapse, digital image correlation); type: cell-based, mouse; conditions: C2C12 treated
Procedure: For time-lapse videos, cells were patterned on a gold-coated glass-bottom Petri dish (ibid, München, Germany). After cells attached, the dish was transferred into an environmental chamber (37° C. and 5% CO2) and image time series were recorded every 5 minutes at a resolution of 1.56 μm/pixel for a total time of 20-40 hours. As the image capture rate is much higher than the characteristic time for cell migration, digital image correlation, together with sub-pixel displacement estimation, were used to determine the displacements of cell migration. A FFT (fast Fourier transform)-based method was first utilized to match regions of two sequential phase contrast images. The calculated displacement values were then used as inputs for a more accurate estimation of displacement fields at a sub-pixel level, using a second-order image correlation algorithm described previously (P. Zhou, K. E. Goodson, Opt Eng 40, 1613 (August, 2001)). To evaluate the bias of cell migration, the obtained velocity field was further projected in the circumferential (Vθ) and radial (Vr) direction.

hUVEC cells = assay: Cell chirality (alignment) on micropatterned rings, drug treatment, hUVEC; type: cell-based, human; conditions: hUVEC on ring patterns, count of rings
Procedure: as §1, §4, §5, §2, §3

skin tumor cancer cells = assay: Cell chirality on patterned substrates, skin tumor cancer cells, actin interfering reagent; type: cell-based, human; conditions: count of patterns
Procedure: as §2, §3
Experiments were conducted to determine whether cancer cell chirality depends on actin function. Skin cancer cells were treated with actin interfering reagent Lantrunculin A at 0 nM (control), 20 nM, 50 nM, 100 nM, or 200 nM.

C2C12 cells [4] = assay: Cell polarization by organelle positioning relative to ring boundaries (immunofluorescence); type: cell-based, mouse; conditions: C2C12 on rings; centrosome vs nucleus position
Procedure: After imaging, cells were fixed with 4% formaldehyde in cytoskeletal buffer (10 mM MES, 138 mM KCl, 3 mM MgCl2, 2 mM EGTA, and 0.32 M sucrose) for 25 minutes. For actin/tubulin double staining, the cells were incubated with phalloidin-TRITC (1:400; Invitrogen) and anti-Tubulin-FITC (1:50; Sigma) for 1 hour. For the Golgi apparatus positioning inside patterned rings, the cells were incubated in 1 μg/ml anti-human golgin-97 (Invitrogen) for 1 hour. After secondary antibodies, cell nuclei were stained with 200 ng/ml 40, 6-diamidino-2-phenylindole (DAPI; Sigma) for 10 minutes. Finally, the cells were mounted with Fluoromount-G medium (SouthernBiotech, Birmingham, Ala.).

[5] = calcium chelator added to culture, 0.5 mM
[6] = calcium chelator added to culture, 2 mM
[7] = substrate protein coating of the pattern

O=C(O)CN(CCOCCOCCN(CC(=O)O)CC(=O)O)CC(=O)O [EGTA]
CCW: counter-clockwise alignment (C2C12 cells [1]; [5]): 24
CW: clockwise alignment (C2C12 cells [1]; [5]): 0
N/S: not significantly biased to CW or CCW (C2C12 cells [1]; [5]): 2
CCW: counter-clockwise alignment (C2C12 cells [1]; [6]): 12
CW: clockwise alignment (C2C12 cells [1]; [6]): 1
N/S: not significantly biased to CW or CCW (C2C12 cells [1]; [6]): 3

C/C1=C/C(=O)O[C@@H]2C[C@@H](CC[C@H](C)/C=C\C=C\CC1)O[C@@](O)([C@@H]1CSC(=O)N1)C2 [Latrunculin A]
CCW: counter-clockwise alignment (C2C12 cells [2]; drug 50 nM): 2
CW: clockwise alignment (C2C12 cells [2]; drug 50 nM): 61
N/S: not significantly biased to CW or CCW (C2C12 cells [2]; drug 50 nM): 15
CCW: counter-clockwise alignment (C2C12 cells [2]; drug 200 nM): 0
CW: clockwise alignment (C2C12 cells [2]; drug 200 nM): 57
N/S: not significantly biased to CW or CCW (C2C12 cells [2]; drug 200 nM): 7
CCW: counter-clockwise alignment (C2C12 cells [2]; drug 500 nM): 0
CW: clockwise alignment (C2C12 cells [2]; drug 500 nM): 1
N/S: not significantly biased to CW or CCW (C2C12 cells [2]; drug 500 nM): 10
effect on chirality of C2C12 cells (C2C12 cells [2]; low concentrations of the actin treadmilling inhibitors): reversed the chirality of C2C12 cells from CCW into CW
direction of cell migration at the boundaries (C2C12 cells [3]; versus untreated): reversal at the boundaries
cell migration velocity at the ring boundaries (C2C12 cells [3]; CW along the outer ring and CCW along the inner ring): 15 μm/hr
CCW: counter-clockwise alignment (hUVEC cells; drug 20 nM): 0
CW: clockwise alignment (hUVEC cells; drug 20 nM): 36
N/S: not significantly biased to CW or CCW (hUVEC cells; drug 20 nM): 8
CCW: counter-clockwise alignment (hUVEC cells; drug 50 nM): 0
CW: clockwise alignment (hUVEC cells; drug 50 nM): 2
N/S: not significantly biased to CW or CCW (hUVEC cells; drug 50 nM): 19
CCW: counter-clockwise alignment (hUVEC cells; drug 200 nM): 5
CW: clockwise alignment (hUVEC cells; drug 200 nM): 2
N/S: not significantly biased to CW or CCW (hUVEC cells; drug 200 nM): 56
CCW: counter-clockwise alignment (hUVEC cells; drug 500 nM): 1
CW: clockwise alignment (hUVEC cells; drug 500 nM): 2
N/S: not significantly biased to CW or CCW (hUVEC cells; drug 500 nM): 42
CCW: counter-clockwise alignment (skin tumor cancer cells; 20 nM): 0
CW: clockwise alignment (skin tumor cancer cells; 20 nM): 21
N/S: not significantly biased to CW or CCW (skin tumor cancer cells; 20 nM): 4
CCW: counter-clockwise alignment (skin tumor cancer cells; 50 nM): 1
CW: clockwise alignment (skin tumor cancer cells; 50 nM): 28
N/S: not significantly biased to CW or CCW (skin tumor cancer cells; 50 nM): 2
CCW: counter-clockwise alignment (skin tumor cancer cells; 100 nM): 0
CW: clockwise alignment (skin tumor cancer cells; 100 nM): 32
N/S: not significantly biased to CW or CCW (skin tumor cancer cells; 100 nM): 0
CCW: counter-clockwise alignment (skin tumor cancer cells; 200 nM): 2
CW: clockwise alignment (skin tumor cancer cells; 200 nM): 8
N/S: not significantly biased to CW or CCW (skin tumor cancer cells; 200 nM): 3
effect on cell polarization (organelle positioning relative to boundaries) (C2C12 cells [4]): did not alter cell polarization; also recorded: does not change the polarity of C2C12 cells

Laminin
CCW: counter-clockwise alignment (C2C12 cells [1]; [7]): 34
CW: clockwise alignment (C2C12 cells [1]; [7]): 2
N/S: not significantly biased to CW or CCW (C2C12 cells [1]; [7]): 2

Fibronectin
CCW: counter-clockwise alignment (C2C12 cells [1]; [7]): 32
CW: clockwise alignment (C2C12 cells [1]; [7]): 1
N/S: not significantly biased to CW or CCW (C2C12 cells [1]; [7]): 4
